Data reported in ChEMBL document CHEMBL3885881, “DrugMatrix”.

Species on record: Rattus norvegicus
Assay: DrugMatrix - Regimen: Daily Repeat
Type: toxicity, organism-based, Sprague-Dawley
Design: regimen Daily Repeat, gender Male, age 6-8 weeks
Conditions: in vivo, iv, […], vehicle 100 % SALINE; for ALANINE AMINOTRANSFERASE / ALBUMIN / ALKALINE PHOSPHATASE / ASPARTATE AMINOTRANSFERASE / BLOOD UREA NITROGEN / CARBON DIOXIDE / CHLORIDE / CHOLESTEROL / CREATINE PHOSPHOKINASE / CREATININE / GLUCOSE / LACTATE DEHYDROGENASE / LIPASE / PHOSPHORUS / POTASSIUM / SODIUM / TOTAL BILIRUBIN / TOTAL PROTEIN / URIC ACID: tissue Plasma; for ABSOLUTE BASOPHIL / ABSOLUTE EOSINOPHIL / ABSOLUTE LYMPHOCYTE / ABSOLUTE MONOCYTE / ABSOLUTE SEGMENTED NEUTROPHIL / BASOPHIL / EOSINOPHIL / ERYTHROCYTE COUNT / HEMATOCRIT / HEMOGLOBIN / LEUKOCYTE COUNT / LYMPHOCYTE / MEAN CORPUSCULAR HEMOGLOBIN / MEAN CORPUSCULAR HEMOGLOBIN CONCENTRATION / MEAN CORPUSCULAR VOLUME / MONOCYTE / NEUTROPHIL / NUCLEATED RED BLOOD CELLS / PLATELET COUNT: tissue Blood
[1] = 72 h, dose 0.24 mg/Kg, dose level Low, time 3 day
[2] = 72 h, dose 2.5 mg/Kg, dose level High, time 3 day
[3] = 120 h, dose 0.24 mg/Kg, dose level Low, time 5 day
[4] = 120 h, dose 2.5 mg/Kg, dose level High, time 5 day

CC[C@@]1(O)C(=O)OCc2c1cc1n(c2=O)Cc2cc3ccccc3nc2-1 [CAMPTOTHECIN]
ALANINE AMINOTRANSFERASE [1]: 60 u/L
ALBUMIN [1]: 4.3 G/DL
ALKALINE PHOSPHATASE [1]: 408 u/L
ASPARTATE AMINOTRANSFERASE [1]: 104.67 u/L
BLOOD UREA NITROGEN [1]: 12.67 mg/dL
CARBON DIOXIDE [1]: 33.33 mmol/L
CHLORIDE [1]: 101.33 MEQ/L
CHOLESTEROL [1]: 75 mg/dL
CREATINE PHOSPHOKINASE [1]: 727.67 u/L
CREATININE [1]: 0.15 mg/dL
GLUCOSE [1]: 138.33 mg/dL
LACTATE DEHYDROGENASE [1]: 388 u/L
LIPASE [1]: 11 u/L
PHOSPHORUS [1]: 11.93 mg/dL
POTASSIUM [1]: 6.3 MEQ/L
SODIUM [1]: 145.33 MEQ/L
TOTAL BILIRUBIN [1]: 0.17 mg/dL
TOTAL PROTEIN [1]: 5.93 G/DL
URIC ACID [1]: 1.33 mg/dL
ALANINE AMINOTRANSFERASE [2]: 37.33 u/L
ALBUMIN [2]: 4.2 G/DL
ALKALINE PHOSPHATASE [2]: 430.33 u/L
ASPARTATE AMINOTRANSFERASE [2]: 79.33 u/L
BLOOD UREA NITROGEN [2]: 13 mg/dL
CARBON DIOXIDE [2]: 33 mmol/L
CHLORIDE [2]: 101.33 MEQ/L
CHOLESTEROL [2]: 73.67 mg/dL
CREATINE PHOSPHOKINASE [2]: 318.33 u/L
CREATININE [2]: 0.16 mg/dL
GLUCOSE [2]: 153.33 mg/dL
LACTATE DEHYDROGENASE [2]: 136.33 u/L
LIPASE [2]: 10.33 u/L
PHOSPHORUS [2]: 10.83 mg/dL
POTASSIUM [2]: 5.76 MEQ/L
SODIUM [2]: 142.73 MEQ/L
TOTAL BILIRUBIN [2]: 0.17 mg/dL
TOTAL PROTEIN [2]: 6.1 G/DL
URIC ACID [2]: 1.63 mg/dL
ABSOLUTE BASOPHIL [3]: 0 CELLS/uL
ABSOLUTE EOSINOPHIL [3]: 45.33 CELLS/uL
ABSOLUTE LYMPHOCYTE [3]: 11856.67 CELLS/uL
ABSOLUTE MONOCYTE [3]: 131.67 CELLS/uL
ABSOLUTE SEGMENTED NEUTROPHIL [3]: 1233 CELLS/uL
BASOPHIL [3]: 0%
EOSINOPHIL [3]: 0.33%
ERYTHROCYTE COUNT [3]: 5.71 x10E6/uL
HEMATOCRIT [3]: 35.9%
HEMOGLOBIN [3]: 14.03 G/DL
LEUKOCYTE COUNT [3]: 13.27 x10E3/uL
LYMPHOCYTE [3]: 89.33%
MEAN CORPUSCULAR HEMOGLOBIN [3]: 24.57 pg
MEAN CORPUSCULAR HEMOGLOBIN CONCENTRATION [3]: 39.07 G/DL
MEAN CORPUSCULAR VOLUME [3]: 62.87 fL
MONOCYTE [3]: 1%
NEUTROPHIL [3]: 9.33%
NUCLEATED RED BLOOD CELLS [3]: 0 /100WBC
PLATELET COUNT [3]: 1215 x10E3/uL
ABSOLUTE BASOPHIL [4]: 0 CELLS/uL
ABSOLUTE EOSINOPHIL [4]: 0 CELLS/uL
ABSOLUTE LYMPHOCYTE [4]: 7405.33 CELLS/uL
ABSOLUTE MONOCYTE [4]: 102.67 CELLS/uL
ABSOLUTE SEGMENTED NEUTROPHIL [4]: 225.33 CELLS/uL
BASOPHIL [4]: 0%
EOSINOPHIL [4]: 0%
ERYTHROCYTE COUNT [4]: 5.35 x10E6/uL
HEMATOCRIT [4]: 31.67%
HEMOGLOBIN [4]: 12.13 G/DL
LEUKOCYTE COUNT [4]: 7.73 x10E3/uL
LYMPHOCYTE [4]: 95.67%
MEAN CORPUSCULAR HEMOGLOBIN [4]: 22.77 pg
MEAN CORPUSCULAR HEMOGLOBIN CONCENTRATION [4]: 38.33 G/DL
MEAN CORPUSCULAR VOLUME [4]: 59.3 fL
MONOCYTE [4]: 1.33%
NEUTROPHIL [4]: 3%
NUCLEATED RED BLOOD CELLS [4]: 0 /100WBC
PLATELET COUNT [4]: 1318.33 x10E3/uL
ALANINE AMINOTRANSFERASE [3]: 43.33 u/L
ALBUMIN [3]: 4.03 G/DL
ALKALINE PHOSPHATASE [3]: 352 u/L
ASPARTATE AMINOTRANSFERASE [3]: 70 u/L
BLOOD UREA NITROGEN [3]: 14.67 mg/dL
CARBON DIOXIDE [3]: 29.33 mmol/L
CHLORIDE [3]: 102 MEQ/L
CHOLESTEROL [3]: 64.33 mg/dL
CREATINE PHOSPHOKINASE [3]: 241.67 u/L
CREATININE [3]: 0.18 mg/dL
GLUCOSE [3]: 201.67 mg/dL
LACTATE DEHYDROGENASE [3]: 147.33 u/L
LIPASE [3]: 10.33 u/L
PHOSPHORUS [3]: 11.03 mg/dL
POTASSIUM [3]: 5.31 MEQ/L
SODIUM [3]: 141.3 MEQ/L
TOTAL BILIRUBIN [3]: 0.2 mg/dL
TOTAL PROTEIN [3]: 5.93 G/DL
URIC ACID [3]: 1.33 mg/dL
ALANINE AMINOTRANSFERASE [4]: 42.67 u/L
ALBUMIN [4]: 4.03 G/DL
ALKALINE PHOSPHATASE [4]: 247 u/L
ASPARTATE AMINOTRANSFERASE [4]: 101 u/L
BLOOD UREA NITROGEN [4]: 17 mg/dL
CARBON DIOXIDE [4]: 22.33 mmol/L
CHLORIDE [4]: 103.33 MEQ/L
CHOLESTEROL [4]: 56 mg/dL
CREATINE PHOSPHOKINASE [4]: 674.67 u/L
CREATININE [4]: 0.2 mg/dL
GLUCOSE [4]: 184 mg/dL
LACTATE DEHYDROGENASE [4]: 581 u/L
LIPASE [4]: 10.33 u/L
PHOSPHORUS [4]: 12.4 mg/dL
POTASSIUM [4]: 6.08 MEQ/L
SODIUM [4]: 142.1 MEQ/L
TOTAL BILIRUBIN [4]: 0.13 mg/dL
TOTAL PROTEIN [4]: 6.03 G/DL
URIC ACID [4]: 1.8 mg/dL
